Source: PMC11784839, “Monoaminergic neurotransmitters are bimodal effectors of tau aggregation” (Science Advances, 2025)
*1 amine or outer side, *2 acyl side, *3 side chain or, on linkers, in order; H or OH if unused. Where a SMILES comes first, the peptide text is derived from it. Bridges are numbered along the chain shown (N, C = ends). [ ]: non-standard residue; d: D form. hTyr(3S-OH,4S-OH,3'-OSO3H) = N[C@H](C(=O)O)[C@H](O)[C@@H](O)c1ccc(O)c(OS(=O)(=O)O)c1; Orn(4R-OH,5R-OH) = O=C([C@H](C[C@@H](O)[C@@H](O)N[*:3])N[*:1])[*:2]; Pro(3S-OH,4S-Me) = C[C@H]1CN[C@H](C(=O)O)[C@H]1O; Gln(3R-OH) = NC(=O)C[C@@H](O)[C@H](N)C(=O)O; Hyp = O=C(O)[C@@H]1C[C@@H](O)CN1

Target: tau (Homo sapiens, UniProt P10636)
Test: MCE Phenols Library screening, tau biosensor cell seeding assay (AvZ)
Type: cell-based
Conditions: for Z repl 1 / Z Repl 2: Z score; for Z repl 1 / raw data 1: replicate 1; for Z Repl 2 / raw data 2: replicate 2; for AvZ (average z score of seeding, SDs from the mean level of seeding): 10 μM phenol in cell cultures, AD brain homogenate preincubated 16 hours, two biological replicates, positive = catalyzes seeding, negative = inhibits
[1] = average Z score of the two replicates, MCE Phenols Library screen
[2] = average puncta of the two replicates
[3] = average Z score of two replicates, Phenols Library screen
[4] = average Z score of the two replicates, tau seeding
[5] = average Z score of the two replicates, tau biosensor seeding, MCE Phenols Library screen

Sequence of tau (P10636 623-695 limits assumed): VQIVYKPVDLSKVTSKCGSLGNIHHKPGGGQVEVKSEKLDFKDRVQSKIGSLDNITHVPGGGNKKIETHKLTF

| SMILES | Z repl 1 | Z Repl 2 | av Z [1] | raw data 1 (puncta) | raw data 2 (puncta) | AvZ (average z score of seeding, SDs from the mean level of seeding) | av puncta [2] | raw data 1 (raw puncta) | raw data 2 (raw puncta) | av puncta (average of raw data 1 and 2) | av Z [3] | av Z [4] | av Z [5] |
| --- | --- | --- | --- | --- | --- | --- | --- | --- | --- | --- | --- | --- | --- |
| O=C1c2c(O)cc(O)cc2O[C@H](c2cc(O)c(O)c(O)c2)[C@H]1O [Dihydromyricetin] | -1.346 | -0.885 | -1.115 | 10190.2 | 3319.03 |  |  |  |  |  |  |  |  |
| COc1cc(CCCO)cc(OC)c1O [Dihydrosinapyl alcohol] | -0.789 | 0.221 |  |  |  | -0.284 | 16004.7 | 16882.6 | 15126.8 |  |  |  |  |
| COc1cc2c(O)c3c(c(-c4ccc5c(c4)OCO5)c2cc1OC)C(=O)OC3 [Diphyllin] | -0.334 | -0.918 | -0.626 | 22335.7 | 2966.05 |  | 12650.9 |  |  |  |  |  |  |
| COc1cc(O)ccc1/C=C/C(=O)c1ccc(O)cc1 [Echinatin] | -1.092 | -0.742 | -0.917 | 13242.9 | 4837.17 |  |  |  |  | 9040.03 |  |  |  |
| O=c1oc2c(O)c(O)cc3c(=O)oc4c(O)c(O)cc1c4c23 [Ellagic acid] | -1.043 | -0.067 | -0.555 | 13826.2 | 12045.1 |  | 12935.6 |  |  |  |  |  |  |
| Cc1cc(O)c2c(c1)C(=O)c1cc(O)cc(O[C@@H]3O[C@H](CO)[C@@H](O)[C@H](O)[C@H]3O)c1C2=O [Emodin-8-glucoside] | 0.113 | -0.367 |  | 27700.1 | 8851.57 |  |  |  |  | 18275.8 | -0.127 |  |  |
| Cc1cc(O)c2c(c1)C(=O)c1cc(O)cc(O)c1C2=O [Emodin] | 0.139 | -0.692 | -0.277 |  |  |  | 16696.4 | 28020.6 | 5372.21 |  |  |  |  |
| COc1ccc(-c2oc3c(CC=C(C)C)c(O[C@@H]4O[C@H](CO)[C@@H](O)[C@H](O)[C@H]4O)cc(O)c3c(=O)c2O[C@@H]2O[C@@H](C)[C@H](O)[C@@H](O)[C@H]2O[C@@H]2O[C@H](CO)[C@@H](O)[C@H](O)[C@H]2O)cc1 [Epimedin A] | -1.302 | -0.744 | -1.023 | 10713.2 | 4823.23 |  |  |  |  | 7768.23 |  |  |  |
| COc1ccc(-c2oc3c(CC=C(C)C)c(O[C@@H]4O[C@H](CO)[C@@H](O)[C@H](O)[C@H]4O)cc(O)c3c(=O)c2O[C@@H]2O[C@@H](C)[C@H](O)[C@@H](O)[C@H]2O[C@@H]2OC[C@@H](O)[C@H](O)[C@H]2O)cc1 [Epimedin B] | 0.357 | 0.482 |  | 30639 | 17918.4 |  |  |  |  | 24278.7 |  | 0.42 |  |
| CC(C)=CCc1c(O[C@@H]2O[C@H](CO)[C@@H](O)[C@H](O)[C@H]2O)cc(O)c2c(=O)c(O[C@@H]3O[C@@H](C)[C@H](O)[C@@H](O)[C@H]3O)c(-c3ccc(O)cc3)oc12 [Epimedoside A] | 0.582 | -0.181 |  | 33332 | 10830.3 |  |  |  |  | 22081.1 |  | 0.2 |  |
| O=C1C[C@@H](c2ccc(O)c(O)c2)Oc2cc(O[C@@H]3O[C@H](CO)[C@@H](O)[C@H](O)[C@H]3O)cc(O)c21 [Eriodictyol-7-O-glucoside] | -0.303 | 0.417 |  | 22716.1 | 17219.4 |  |  |  |  | 19967.8 | 0.057 |  |  |
| O=C1C[C@@H](c2ccc(O)c(O)c2)Oc2cc(O)cc(O)c21 [Eriodictyol] | -0.756 | 0.192 | -0.282 |  |  |  | 16042.6 | 17267.7 | 14817.6 |  |  |  |  |
| O=c1ccc2cc(O)c(O)cc2o1 [Esculetin] | -0.338 | -0.78 | -0.559 | 22288.3 | 4440.46 |  | 13364.4 |  |  |  |  |  |  |
| C[C@]12CC[C@@H]3c4ccc(O)cc4CC[C@H]3[C@@H]1C[C@@H](O)[C@@H]2O [Estriol] | 0.006 | 0.639 |  | 26418.8 | 19589.9 |  |  |  |  | 23004.4 |  | 0.322 |  |
| CCOC(=O)c1cc(O)c(O)c(O)c1 [Ethyl gallate] | -0.43 | -1.15 |  | 21190.3 | 484.087 | -0.79 |  |  |  | 10837.2 |  |  |  |
| C#C[C@]1(O)CC[C@H]2[C@@H]3CCc4cc(O)ccc4[C@H]3CC[C@@]21C [Ethynyl Estradiol] | 0.578 | 0.204 |  | 33285.2 | 14948.5 |  |  |  |  | 24116.9 |  | 0.391 |  |
| C=CCc1ccc(O)c(OC)c1 [Eugenol] | -0.386 | -0.861 |  | 21709.5 | 3574.2 | -0.624 | 12641.9 |  |  |  |  |  |  |
| COc1ccc(-c2cc(=O)c3c(O)c(OC)c(O)cc3o2)cc1OC [Eupatilin] | 0.583 | 0.288 |  | 33348.4 | 15845.8 |  |  |  |  | 24597.1 |  | 0.436 |  |
| COc1ccc(-c2cc(=O)c3c(O)c(OC)c(OC)cc3o2)cc1O [Eupatorin] | 0.938 | 0.779 |  | 37615.7 | 21089.9 |  |  |  |  | 29352.8 |  |  | 0.859 |
| C[C@@H](O)[C@@H]1NC(=O)[C@@H](N)C[C@@H](O)[C@@H](O)NC(=O)[C@@H]2[C@@H](O)[C@@H](C)CN2C(=O)[C@H]([C@H](O)CC(N)=O)NC(=O)[C@H]([C@H](O)[C@@H](O)c2ccc(O)c(OS(=O)(=O)O)c2)NC(=O)[C@@H]2C[C@@H](O)CN2C1=O [FR179642] (H-[Orn(4R-OH,5R-OH)]T[Hyp][hTyr(3S-OH,4S-OH,3'-OSO3H)][Gln(3R-OH)][Pro(3S-OH,4S-Me)]; lactam 1-C) | 1.095 | 0.887 |  | 39497.8 | 22235.7 |  |  |  |  | 30866.7 |  |  | 0.991 |
| Cc1c(O)c(C)c2c(c1O)C(=O)C[C@@H](c1ccc(O)cc1)O2 [Farrerol] | -0.382 | -0.766 | -0.574 | 21763 | 4584.63 |  | 13173.8 |  |  |  |  |  |  |
| COc1cc(/C=C/C(=O)[O-])ccc1O.[Na+] [Ferulic acid (sodium)] | -1.081 | -0.257 |  | 13369.9 | 10022.5 | -0.669 | 11696.2 |  |  |  |  |  |  |
| COc1cc(/C=C/C(=O)O)ccc1O [Ferulic acid] | -0.555 | -0.346 |  |  |  | -0.451 | 14374.8 | 19680.6 | 9068.99 |  |  |  |  |
| CCc1c(Cl)c(O)c(Cl)c(O)c1C(=O)O[C@H]1[C@H](O)[C@H](OC)[C@H](OC/C2=C\C=C\C[C@H](O)/C(C)=C/[C@H](CC)[C@@H](O[C@@H]3OC(C)(C)[C@@H](OC(=O)C(C)C)[C@H](O)[C@@H]3O)/C(C)=C/C(C)=C/C[C@@H]([C@@H](C)O)OC2=O)O[C@@H]1C [Fidaxomicin] | 0.356 | 0.717 |  | 30618.6 | 20428.7 |  |  |  |  | 25523.7 |  | 0.537 |  |
